From BindingDB's records for patent US20250074895 (Blueprint Medicines, 2025)

Columns and labels:
[1] = target: Cyclin-dependent kinase/G2/mitotic-specific cyclin- 1 (Homo sapiens, UniProt P06493); experiment: Biochemical CDK Inhibition Assay
Procedure: (§1) nhibitory effects of the compounds of the disclosure were measured in biochemical assays that measure the enzymatic phosphorylation activity of CDK enzyme in complex of Cyclin proteins phosphorylates 7.5 micromolar fluorescently labelled peptide substrate, 5-FAM-QSPKKG-CONH2, (FL-Peptide 18, Perkin Elmer, 760362) in the presence of adenosine-5′-triphosphate (ATP) and varying concentrations of the test compound in 100 mM 2-[4-(2-hydroxyethyl)piperazin-1-yl]ethanesulfonic acid (HEPES), pH 7.5, 10 mM MgCl2, 0.015% Brij-35, 1 mM dithiothreitol (DTT), 1.0% dimethylsulfoxide (DMSO). Assays were performed at 1.0 mM ATP or at ATP Km of the CDK enzymes in complex with Cyclin proteins. Reactions proceeded until between 10% to 20% total peptides were phosphorylated at room temperature (25° C.) and were terminated with 35 mM 2,2′,2″,2′″-(ethane-1,2-diyldinitrilo)tetraacetic acid (EDTA). Product was detected using the Caliper mobility shift detection method where the phosphorylated peptide (product) and substrate were electrophoretically separated and measured. Percent activity was plotted against log concentration of compound and points to generate an apparent IC50. The following CDK enzymes in complex with different cyclin proteins were used in these assays:CDK1/Cyclin B1, GST-tag (BPS, 40454), 1.5 nM used in the assayCDK2/Cyclin E (Eurofins, 14-475), 1.25 nM used in the assays

[2] = target: Cyclin-dependent kinase 2/G1/S-specific cyclin-E1 (Homo sapiens, UniProt P24941); experiment: Biochemical CDK Inhibition Assay
Procedure: as §1

Cyclin-dependent kinase/G2/mitotic-specific cyclin- 1, sequence (P06493 whole entry): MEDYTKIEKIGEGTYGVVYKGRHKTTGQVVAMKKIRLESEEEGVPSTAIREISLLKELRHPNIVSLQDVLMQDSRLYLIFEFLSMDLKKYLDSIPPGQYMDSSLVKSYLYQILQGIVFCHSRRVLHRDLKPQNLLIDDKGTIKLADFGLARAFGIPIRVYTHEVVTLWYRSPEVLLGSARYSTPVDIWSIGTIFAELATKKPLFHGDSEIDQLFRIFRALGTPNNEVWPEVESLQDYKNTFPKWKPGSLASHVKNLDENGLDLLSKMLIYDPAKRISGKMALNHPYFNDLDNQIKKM
Cyclin-dependent kinase/G2/mitotic-specific cyclin- 1, sequence (P14635 whole entry, further chain): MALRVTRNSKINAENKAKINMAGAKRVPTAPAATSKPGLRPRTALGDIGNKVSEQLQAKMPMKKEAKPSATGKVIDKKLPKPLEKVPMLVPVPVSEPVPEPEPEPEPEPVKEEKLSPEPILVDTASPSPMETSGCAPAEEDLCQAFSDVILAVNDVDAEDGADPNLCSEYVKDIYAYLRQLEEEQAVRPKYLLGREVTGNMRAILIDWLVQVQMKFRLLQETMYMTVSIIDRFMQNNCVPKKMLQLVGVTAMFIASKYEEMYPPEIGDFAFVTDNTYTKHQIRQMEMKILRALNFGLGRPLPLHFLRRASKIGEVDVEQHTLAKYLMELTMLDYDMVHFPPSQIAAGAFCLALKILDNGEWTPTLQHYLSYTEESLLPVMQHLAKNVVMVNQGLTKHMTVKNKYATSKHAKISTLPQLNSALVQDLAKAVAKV

C[C@H](O)c1cnc(Nc2cc([C@H]3CC[C@@H](OC(=O)N4CCC4(C)C)C3)[nH]n2)cn1 [US20250074895, Compound 52]
IC50 [1]: < 100 nM
IC50 [2]: < 10 nM

Cc1nc(CO)cnc1Nc1cc([C@H]2CC[C@@H](OC(=O)NC3(C)CC3)C2)[nH]n1 [US20250074895, Compound 47]
IC50 [1]: > 500 nM
IC50 [2]: < 10 nM

CC1(NC(=O)O[C@@H]2CC[C@H](c3cc(Nc4cccnn4)n[nH]3)C2)CC1 [US20250074895, Compound 38]
IC50 [1]: > 500 nM
IC50 [2]: 15 nM

CC1(NC(=O)O[C@@H]2CC[C@H](c3cc(Nc4cnc(OC(F)F)cn4)n[nH]3)C2)CC1 [US20250074895, Compound 8]
IC50 [1]: 300 nM
IC50 [2]: < 10 nM

CC1(NC(=O)O[C@@H]2CC[C@H](c3cc(Nc4cncc(C#N)n4)n[nH]3)C2)CC1 [US20250074895, Compound 11]
IC50 [1]: < 100 nM
IC50 [2]: < 10 nM

COc1nncc(Nc2cc([C@H]3CC[C@@H](OC(=O)NC4(C)CC4)C3)[nH]n2)n1 [US20250074895, Compound 54]
IC50 [1]: < 100 nM
IC50 [2]: < 10 nM

CC1(NC(=O)O[C@@H]2CC[C@H](c3cc(Nc4cc(C#N)ccn4)n[nH]3)C2)CC1 [US20250074895, Compound 2]
IC50 [1]: < 100 nM
IC50 [2]: < 10 nM

CC1(NC(=O)O[C@@H]2CC[C@H](c3cc(Nc4cnc(C(C)(C)O)cn4)n[nH]3)C2)CC1 [US20250074895, Compound 17]
IC50 [1]: 300 nM
IC50 [2]: < 10 nM

CC1(NC(=O)O[C@@H]2CC[C@H](c3cc(Nc4ccnc(C(F)(F)F)n4)n[nH]3)C2)CC1 [US20250074895, Compound 10]
IC50 [1]: < 100 nM
IC50 [2]: < 10 nM

Cc1nc(Nc2cc([C@H]3CC[C@@H](OC(=O)NC4(C)CC4)C3)[nH]n2)cnc1C#N [US20250074895, Compound 9]
IC50 [1]: < 100 nM
IC50 [2]: < 10 nM

Cc1cnc(Nc2cc([C@H]3CC[C@@H](OC(=O)NC4(C)CC4)C3)[nH]n2)cn1 [US20250074895, Compound 27]
IC50 [1]: 300 nM
IC50 [2]: < 10 nM

CN(C)c1nncc(Nc2cc([C@H]3CC[C@@H](OC(=O)NC4(C)CC4)C3)[nH]n2)n1 [US20250074895, Compound 44]
IC50 [1]: < 100 nM
IC50 [2]: < 10 nM

Cc1cc(C#N)cnc1Nc1cc([C@H]2CC[C@@H](OC(=O)NC3(C)CC3)C2)[nH]n1 [US20250074895, Compound 20]
IC50 [1]: > 500 nM
IC50 [2]: < 10 nM

CN(C)c1cnc(Nc2cc([C@H]3CC[C@@H](OC(=O)NC4(C)CC4)C3)[nH]n2)cn1 [US20250074895, Compound 32]
IC50 [1]: > 500 nM
IC50 [2]: < 10 nM

CC1(NC(=O)O[C@@H]2CC[C@H](c3cc(Nc4ccnc(CO)n4)n[nH]3)C2)CC1 [US20250074895, Compound 46]
IC50 [1]: 300 nM
IC50 [2]: < 10 nM

COc1nccc(Nc2cc([C@H]3CC[C@@H](OC(=O)NC4(C)CC4)C3)[nH]n2)n1 [US20250074895, Compound 25]
IC50 [1]: 300 nM
IC50 [2]: < 10 nM

CC1(NC(=O)O[C@@H]2CC[C@H](c3cc(Nc4cnc(CO)cn4)n[nH]3)C2)CC1 [US20250074895, Compound 55]
IC50 [1]: < 100 nM
IC50 [2]: < 10 nM

CC1(NC(=O)O[C@@H]2CC[C@H](c3cc(Nc4cncc(C5CC5)n4)n[nH]3)C2)CC1 [US20250074895, Compound 29]
IC50 [1]: < 100 nM
IC50 [2]: < 10 nM

CC1(NC(=O)O[C@@H]2CC[C@H](c3cc(Nc4cnc(F)cn4)n[nH]3)C2)CC1 [US20250074895, Compound 31]
IC50 [1]: < 100 nM
IC50 [2]: < 10 nM

CC1(NC(=O)O[C@@H]2CC[C@H](c3cc(Nc4cnc(C#N)cn4)n[nH]3)C2)CC1 [US20250074895, Compound 1]
IC50 [1]: 300 nM
IC50 [2]: < 10 nM

Cc1nccnc1Nc1cc([C@H]2CC[C@@H](OC(=O)NC3(C)CC3)C2)[nH]n1 [US20250074895, Compound 6]
IC50 [1]: > 500 nM
IC50 [2]: < 10 nM

CC1(NC(=O)O[C@@H]2CC[C@H](c3cc(Nc4cc(C#N)cnn4)n[nH]3)C2)CC1 [US20250074895, Compound 5]
IC50 [1]: 300 nM
IC50 [2]: < 10 nM

COCc1cnc(Nc2cc([C@H]3CC[C@@H](OC(=O)NC4(C)CC4)C3)[nH]n2)cn1 [US20250074895, Compound 37]
IC50 [1]: 300 nM
IC50 [2]: < 10 nM

COc1cnc(Nc2cc([C@H]3CC[C@@H](OC(=O)NC4(C)CC4)C3)[nH]n2)cn1 [US20250074895, Compound 28]
IC50 [1]: 300 nM
IC50 [2]: < 10 nM

CC1(NC(=O)O[C@@H]2CC[C@H](c3cc(Nc4ccccn4)n[nH]3)C2)CC1 [US20250074895, Compound 13]
IC50 [1]: > 500 nM
IC50 [2]: 15 nM

Cc1nccc(Nc2cc([C@H]3CC[C@@H](OC(=O)NC4(C)CC4)C3)[nH]n2)n1 [US20250074895, Compound 34]
IC50 [1]: 300 nM
IC50 [2]: < 10 nM

C[C@@H](O)c1cnc(Nc2cc([C@H]3CC[C@@H](OC(=O)N4CCC4(C)C)C3)[nH]n2)cn1 [US20250074895, Compound 51]
IC50 [1]: < 100 nM
IC50 [2]: < 10 nM

C[C@@H](O)c1cnc(Nc2cc([C@H]3CC[C@@H](OC(=O)NC4(C)CC4)C3)[nH]n2)cn1 [US20250074895, Compound 22]
IC50 [1]: 300 nM
IC50 [2]: < 10 nM

Cc1c(C#N)ccnc1Nc1cc([C@H]2CC[C@@H](OC(=O)NC3(C)CC3)C2)[nH]n1 [US20250074895, Compound 14]
IC50 [1]: > 500 nM
IC50 [2]: < 10 nM

CC1(NC(=O)O[C@H]2CC[C@@H](c3cc(Nc4cnccn4)n[nH]3)C2)CC1 [US20250074895, Compound 57]
IC50 [1]: < 100 nM
IC50 [2]: < 10 nM

CC1(NC(=O)O[C@@H]2CC[C@H](c3cc(Nc4cnccn4)n[nH]3)C2)CC1 [US20250074895, Compound 26]
IC50 [1]: 300 nM
IC50 [2]: < 10 nM

CC1(NC(=O)O[C@@H]2CC[C@H](c3cc(Nc4cc(C#N)ncn4)n[nH]3)C2)CC1 [US20250074895, Compound 16]
IC50 [1]: < 100 nM
IC50 [2]: < 10 nM

Cc1cc(C#N)cc(Nc2cc([C@H]3CC[C@@H](OC(=O)NC4(C)CC4)C3)[nH]n2)n1 [US20250074895, Compound 15]
IC50 [1]: < 100 nM
IC50 [2]: < 10 nM

COc1cnc(Nc2cc([C@H]3CC[C@@H](OC(=O)NC4(C)CC4)C3)[nH]n2)c(C)n1 [US20250074895, Compound 45]
IC50 [1]: > 500 nM
IC50 [2]: < 10 nM

CC1(NC(=O)O[C@@H]2CC[C@H](c3cc(Nc4ccc(C#N)nn4)n[nH]3)C2)CC1 [US20250074895, Compound 18]
IC50 [1]: > 500 nM
IC50 [2]: 15 nM

Cc1cncnc1Nc1cc([C@H]2CC[C@@H](OC(=O)NC3(C)CC3)C2)[nH]n1 [US20250074895, Compound 40]
IC50 [1]: > 500 nM
IC50 [2]: 15 nM

C[C@H](O)c1cnc(Nc2cc([C@H]3CC[C@@H](OC(=O)NC4(C)CC4)C3)[nH]n2)cn1 [US20250074895, Compound 21]
IC50 [1]: 300 nM
IC50 [2]: < 10 nM

CC1(NC(=O)O[C@@H]2CC[C@H](c3cc(Nc4cnc(C(F)F)cn4)n[nH]3)C2)CC1 [US20250074895, Compound 36]
IC50 [1]: < 100 nM
IC50 [2]: < 10 nM

CC1(NC(=O)O[C@@H]2CC[C@H](c3cc(Nc4cnc(Cl)cn4)n[nH]3)C2)CC1 [US20250074895, Compound 41]
IC50 [1]: > 500 nM
IC50 [2]: < 10 nM

CNc1nccc(Nc2cc([C@H]3CC[C@@H](OC(=O)NC4(C)CC4)C3)[nH]n2)n1 [US20250074895, Compound 48]
IC50 [1]: 300 nM
IC50 [2]: < 10 nM

Cc1cnc(C#N)nc1Nc1cc([C@H]2CC[C@@H](OC(=O)NC3(C)CC3)C2)[nH]n1 [US20250074895, Compound 19]
IC50 [1]: 300 nM
IC50 [2]: < 10 nM

CC1(NC(=O)O[C@@H]2CC[C@H](c3cc(Nc4ccncn4)n[nH]3)C2)CC1 [US20250074895, Compound 39]
IC50 [1]: 300 nM
IC50 [2]: < 10 nM

Cc1nc(C#N)cnc1Nc1cc([C@H]2CC[C@@H](OC(=O)NC3(C)CC3)C2)[nH]n1 [US20250074895, Compound 4]
IC50 [1]: > 500 nM
IC50 [2]: < 10 nM

COc1cncc(Nc2cc([C@H]3CC[C@@H](OC(=O)NC4(C)CC4)C3)[nH]n2)n1 [US20250074895, Compound 24]
IC50 [1]: 300 nM
IC50 [2]: < 10 nM

CC1(NC(=O)O[C@@H]2CC[C@H](c3cc(Nc4ccc(C#N)cn4)n[nH]3)C2)CC1 [US20250074895, Compound 12]
IC50 [1]: 300 nM
IC50 [2]: < 10 nM

COc1nccc(Nc2cc([C@@H]3CC[C@H](OC(=O)NC4(C)CC4)C3)[nH]n2)n1 [US20250074895, Compound 58]
IC50 [1]: < 100 nM
IC50 [2]: < 10 nM

CC1(NC(=O)O[C@@H]2CC[C@H](c3cc(Nc4cnc(S(C)(=O)=O)cn4)n[nH]3)C2)CC1 [US20250074895, Compound 35]
IC50 [1]: > 500 nM
IC50 [2]: < 10 nM

CC1(NC(=O)O[C@@H]2CC[C@H](c3cc(Nc4ccnc(C(F)F)n4)n[nH]3)C2)CC1 [US20250074895, Compound 33]
IC50 [1]: < 100 nM
IC50 [2]: < 10 nM

Cc1cncc(Nc2cc([C@H]3CC[C@@H](OC(=O)NC4(C)CC4)C3)[nH]n2)n1 [US20250074895, Compound 7]
IC50 [1]: < 100 nM
IC50 [2]: < 10 nM

CNc1nc(Nc2cc([C@H]3CC[C@@H](OC(=O)NC4(C)CC4)C3)[nH]n2)cnc1C#N [US20250074895, Compound 43]
IC50 [1]: 300 nM
IC50 [2]: < 10 nM
